Tests used:
Assay type in all cases: binding
XCR1 = molecular target: T1, XCR1 (Homo sapiens, UniProt P46094); assay: NanoBRET screen HiBiT-XCR1 in HEK293
T1 construct: purchased Promega (in-house HiBiT-GPCR construct library, NanoBRET)
T1 sequence (P46094 1-333): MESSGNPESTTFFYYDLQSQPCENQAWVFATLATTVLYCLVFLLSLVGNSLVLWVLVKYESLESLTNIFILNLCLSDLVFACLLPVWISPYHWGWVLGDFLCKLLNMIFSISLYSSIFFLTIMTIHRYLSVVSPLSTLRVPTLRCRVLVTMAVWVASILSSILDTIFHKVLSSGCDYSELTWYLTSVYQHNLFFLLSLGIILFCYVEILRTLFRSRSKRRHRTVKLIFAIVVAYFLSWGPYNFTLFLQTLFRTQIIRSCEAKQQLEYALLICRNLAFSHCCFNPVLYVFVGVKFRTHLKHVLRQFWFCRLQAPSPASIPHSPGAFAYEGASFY
Description: (§1) Each tracer candidate was screened across the entire library of HiBiT-GPCR constructs using NanoBRET as the detection modality. As depicted in Figure 4A, the specificity of interactions was evaluated through decrease in BRET due to competitive displacement of a bound tracer by excess parental compound. Each tracer was analyzed for binding to each HiBiT-GPCR fusion in the absence and in the presence of competing parental compound. Briefly, HEK293 cells were transfected with HiBiT-GPCR constructs diluted into promoterless DNA to reduce expression and maximize translocation to the cell surface. Each tracer candidate was then screened at concentrations of 1 μM and 0.1 μM across cells expressing these fusions. Cells were treated for 1.5 h with tracer either alone or in the presence of 20 μM competing parental compound (i.e., control). BRET was measured upon addition of purified LgBiT and subsequent complementation with HiBiT genetically fused to a GPCR. The specificity of interactions was assessed through a decrease in BRET signal due to competitive displacement of the bound tracer. To further gauge the robustness of these interactions, the fold response over the control (i.e., BRETtracer/BRETcontrol) was calculated. We chose a 1.5-fold response, which translates to ≥7-fold signal over noise as the minimal threshold required to score an interaction as positive. […]. Below we highlight the screening results obtained for our exemplary fluorescent tracers based on Clozapine, Amitriptyline and AZD1283.
(§2) HiBiT-GPCR DNA constructs were diluted in 10 mM Tris pH 8 to a final concentration of 0.01 μg/μL, arrayed in 96-well plates and stored at −20 °C. For transfection, HEK293 cells were suspended in Opti-MEM (without phenol red) supplemented with 2% fetal bovine serum (Seradigm) and 100 units/mL penicillin–streptomycin (Gibco) at a final concentration of 220,000 cells/mL and dispensed into white 96-well plates at 90 μL/well. Subsequent transfections and screens were carried using an Agilent Bravo Automated Liquid Handling Platform. First, the 96-well HiBiT DNA arrays were diluted 25-fold in Opti-MEM (without serum or phenol red) to a final concentration of 0.0004 μg/μL and 20 μL of the diluted DNAs were transferred into new 96-well plates. Next, promoterless carrier DNA (1 μg/μL) was diluted 25-fold (0.04 μg/μL) and then dispensed into the diluted arrays at 20 μL/well. Following brief mixing, Viafect transfection reagent (Promega) diluted 16-fold into Opti-MEM was dispensed into the plates at 40 μL/well. After mixing by pipetting, plates were incubated for 10 min on the pipetting station deck. The DNA-transfection reagent complexes were then added to plates containing cells. To facilitate the screen, 10 μL of DNA-transfection reagent complexes were added in duplicates to the top 4 and bottom 4 rows, resulting in two identical 48-well arrays per plate. Plates with transfected cells were incubated for 18–20 h at 37 °C/5% CO2. A screen of each tracer across the entire library using two different concentrations requires duplicate plates of transfected cells. Depending on the number of tracers being screened, transfections can be scaled up using the same ratios. The next day, for each tracer, four 20× screening solutions in tracer dilution buffer (Promega) were prepared: two duplicates at final concentration of 20 μM and two duplicates at a final concentration of 2 μM. A competing unmodified compound was added to one of each duplicate at a final concentration of 400 μM. The four resulting solutions were diluted 4-fold in Opti-MEM without serum or phenol red to generate 5× solutions (5 µM and 0.5 µM tracer +/− 100 μM competing compound). To screen the library, a BioTek MultiFlo FX liquid dispenser was used to dispense 22.5 µL of tracer solution to the top 4 rows and 22.5 µL tracer + competing compound solution to the 4 bottom rows. Plates were briefly mixed on an orbital shaker and incubated for 1.5 h at room temperature. […]

GCGR = molecular target: T2, GCGR (Homo sapiens, UniProt P47871); assay: NanoBRET screen HiBiT-GCGR in HEK293
T2 construct: purchased Promega (in-house HiBiT-GPCR construct library, NanoBRET)
Description: as §1, §2

OXER1 = molecular target: T3, OXER1 (Homo sapiens, UniProt Q8TDS5); assay: NanoBRET screen HiBiT-OXER1 in HEK293
T3 construct: purchased Promega (in-house HiBiT-GPCR construct library, NanoBRET)
Description: as §1, §2

T3 sequence (Q8TDS5 whole entry): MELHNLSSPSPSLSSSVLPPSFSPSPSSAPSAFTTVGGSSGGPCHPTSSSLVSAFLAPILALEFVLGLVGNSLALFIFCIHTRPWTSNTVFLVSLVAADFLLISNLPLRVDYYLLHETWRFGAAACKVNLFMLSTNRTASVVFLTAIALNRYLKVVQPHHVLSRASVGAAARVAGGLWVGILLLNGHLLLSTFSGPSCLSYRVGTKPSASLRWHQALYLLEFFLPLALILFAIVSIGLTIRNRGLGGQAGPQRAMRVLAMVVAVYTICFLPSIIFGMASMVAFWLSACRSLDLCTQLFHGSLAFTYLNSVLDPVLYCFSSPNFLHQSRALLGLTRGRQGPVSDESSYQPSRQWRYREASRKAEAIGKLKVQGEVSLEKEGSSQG
T2 sequence (P47871 26-477): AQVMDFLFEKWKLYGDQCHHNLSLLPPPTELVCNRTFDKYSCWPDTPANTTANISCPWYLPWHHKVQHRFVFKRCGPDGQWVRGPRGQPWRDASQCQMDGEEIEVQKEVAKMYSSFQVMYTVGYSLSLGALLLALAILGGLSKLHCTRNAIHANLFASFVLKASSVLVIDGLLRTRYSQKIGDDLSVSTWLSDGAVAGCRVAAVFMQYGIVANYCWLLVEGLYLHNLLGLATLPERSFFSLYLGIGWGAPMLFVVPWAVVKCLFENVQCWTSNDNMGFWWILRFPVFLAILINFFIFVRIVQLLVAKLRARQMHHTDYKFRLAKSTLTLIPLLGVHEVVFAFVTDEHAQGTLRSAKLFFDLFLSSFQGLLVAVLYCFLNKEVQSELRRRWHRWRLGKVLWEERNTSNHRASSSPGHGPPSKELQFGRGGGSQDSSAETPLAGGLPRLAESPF

SMILES	NanoBRET Fold Response (XCR1; XCR1, tracer 0.1μM)	NanoBRET Fold Response (XCR1; XCR1, tracer 1μM)	NanoBRET Fold Response (GCGR; GCGR, tracer 0.1μM)	NanoBRET Fold Response (GCGR; GCGR, tracer 1μM)	NanoBRET Fold Response (OXER1; OXER1, tracer 0.1μM)	NanoBRET Fold Response (OXER1; OXER1, tracer 1μM)	NanoBRET Fold Response (XCR1; 0.1μM tracer)	NanoBRET Fold Response (XCR1; 1μM tracer)	NanoBRET Fold Response (GCGR; 0.1μM tracer)	NanoBRET Fold Response (GCGR; 1μM tracer)	NanoBRET Fold Response (OXER1; 0.1μM tracer)	NanoBRET Fold Response (OXER1; 1μM tracer)
O=C(CCc1ccc2n1[B-](F)(F)[N+]1=C(c3ccc[nH]3)C=CC1=C2)NCc1ccc(C(=O)NCCOCCC(=O)N[C@@H]2CC[C@@]3(O)[C@H]4Cc5ccc(O)c6c5[C@@]3(CCN4CC3CC3)[C@H]2O6)cc1 [Naltrexone-3-NB590]	0.97	0.61	1.06	0.92	0.78	0.74						
COc1ccccc1N1CCN(CCCCN2C(=O)c3ccc(CNC(=O)CCOCCNC(=O)c4ccc(CNC(=O)CCc5ccc6n5[B-](F)(F)[N+]5=C(c7ccc[nH]7)C=CC5=C6)cc4)cc3C2=O)CC1 [NAN-190-3-NB590]	1.29	1.34	0.84	0.76	1.34	0.63						
Cc1cc2c(s1)Nc1ccccc1N=C2N1CCN(CCCNC(=O)CCOCCOCCOCCOCCNC(=O)CCc2ccc3n2[B-](F)(F)[N+]2=C(c4ccc[nH]4)C=CC2=C3)CC1 [Olanzapine-a-2-NB590]	0.88	1.27	0.97	0.95	0.96	1.04						
CCCn1c(=O)c2[nH]c(-c3ccc(OCC(=O)NCCNC(=O)CCOCCNC(=O)c4ccc(CNC(=O)CCc5ccc6n5[B-](F)(F)[N+]5=C(c7ccc[nH]7)C=CC5=C6)cc4)cc3)nc2n(CCC)c1=O [XAC-3-NB590]	0.87	0.98	1.03	0.96	1.04	0.96						
COc1ccc2c(n1)c(CCNC(C)=O)cn2CCNC(=O)CCc1ccc2n1[B-](F)(F)[N+]1=C(c3ccc[nH]3)C=CC1=C2 [Azamelatonin-1-NB590]							1.33	1.18	1.01	1.10	1.39	1.06
